From PubChem BioAssay AID328 (DTP/NCI, 2004)
Where “and” joins values, the source holds several entries; their conditions need not be identical. Equal entries are not always repeated. Toxic doses and inconclusive results are not listed.

Test system: BDF1 mice, P388 leukemia ip, median survival T/C
Experiment: NCI In Vivo Anticancer Drug Screen. Data for tumor model P388 Leukemia (intraperitoneal) in B6D2F1 (BDF1) mice
Conditions: endpoint: median survival time, higher = longer survival
Summary of the method: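 Survival ratio, drug arm over vehicle arm, in mice with a transplanted tumour.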

COc1cc2cc3c4cc(OC)c(OC)cc4cc[n+]3c(C)c2cc1OC (tested in a mixture with another compound)
T/C (dose: 8.0 mg/kg/injection, schedule: Q01DX008 (ip), vehicle: other): 156 % of control
T/C (dose: 8.0 mg/kg/injection, schedule: Q01DX009 (ip), vehicle: clinical formulation): 155 % of control
T/C (dose: 8.0 mg/kg/injection, schedule: Q03HX008 (ip), vehicle: other): 111 % of control
T/C (dose: 9.3 mg/kg/injection, schedule: Q01DX009 (ip), vehicle: saline): 150 % of control
T/C (dose: 12.5 mg/kg/injection, schedule: Q04DX003 (ip), vehicle: other): 121 % of control
T/C (dose: 16.0 mg/kg/injection, schedule: Q01DX008 (ip), vehicle: other): 154 % of control
T/C (dose: 16.0 mg/kg/injection, schedule: Q01DX008 (ip), vehicle: water): 163 % of control
T/C (dose: 16.0 mg/kg/injection, schedule: Q01DX009 (ip), vehicle: Klucel (hydroxypropylcellulose) (HPC)): 157 % of control
T/C (dose: 16.0 mg/kg/injection, schedule: Q01DX009 (ip), vehicle: clinical formulation): 161 % of control
T/C (dose: 16.0 mg/kg/injection, schedule: Q01DX009 (oral), vehicle: other): 94 % of control
T/C (dose: 16.0 mg/kg/injection, schedule: Q01DX009 (sc), vehicle: other): 101 % of control
T/C (dose: 16.0 mg/kg/injection, schedule: Q03HX016 (ip), vehicle: other): 153 % of control
T/C (dose: 16.0 mg/kg/injection, schedule: Q03HX024 (ip), vehicle: other): 174 % of control
T/C (dose: 32.0 mg/kg/injection, schedule: Q01DX008 (ip), vehicle: Klucel (hydroxypropylcellulose) (HPC)): 182 % of control
T/C (dose: 32.0 mg/kg/injection, schedule: Q01DX008 (ip), vehicle: other): 167 % of control
T/C (dose: 32.0 mg/kg/injection, schedule: Q01DX008 (ip), vehicle: water): 163 % of control
T/C (dose: 32.0 mg/kg/injection, schedule: Q01DX009 (ip), vehicle: Klucel (hydroxypropylcellulose) (HPC)): 186 % of control
T/C (dose: 32.0 mg/kg/injection, schedule: Q01DX009 (ip), vehicle: clinical formulation): 211 % of control
T/C (dose: 32.0 mg/kg/injection, schedule: Q01DX009 (oral), vehicle: other): 103 % of control
T/C (dose: 32.0 mg/kg/injection, schedule: Q01DX009 (sc), vehicle: other): 115 % of control
T/C (dose: 32.0 mg/kg/injection, schedule: Q03HX016 (ip), vehicle: other): 182 % of control
T/C (dose: 32.0 mg/kg/injection, schedule: Q03HX024 (ip), vehicle: other): 190 % of control
T/C (dose: 37.5 mg/kg/injection, schedule: Q01DX009 (ip), vehicle: saline): 175 % of control
T/C (dose: 37.5 mg/kg/injection, schedule: Q04DX003 (ip), vehicle: saline): 162 % of control
T/C (dose: 46.7 mg/kg/injection, schedule: Q04DX003 (ip), vehicle: alkali diluted with saline): 165 % of control
T/C (dose: 50.0 mg/kg/injection, schedule: Q04DX002 (ip), vehicle: saline): 154 % of control
T/C (dose: 50.0 mg/kg/injection, schedule: Q04DX003 (ip), vehicle: saline): 157 % of control
T/C (dose: 50.0 mg/kg/injection, schedule: Q04DX003 (ip), vehicle: water): 158 % of control
T/C (dose: 64.0 mg/kg/injection, schedule: Q01DX001 (ip), vehicle: other): 120 % of control
T/C (dose: 64.0 mg/kg/injection, schedule: Q01DX001 (oral), vehicle: other): 100 % of control
T/C (dose: 64.0 mg/kg/injection, schedule: Q01DX001 (sc), vehicle: other): 103 % of control
T/C (dose: 64.0 mg/kg/injection, schedule: Q01DX008 (ip), vehicle: Klucel (hydroxypropylcellulose) (HPC)): 208 % of control
T/C (dose: 64.0 mg/kg/injection, schedule: Q01DX008 (ip), vehicle: other): 206 % of control
T/C (dose: 64.0 mg/kg/injection, schedule: Q01DX008 (ip), vehicle: water): 185 % of control
T/C (dose: 64.0 mg/kg/injection, schedule: Q01DX009 (ip), vehicle: Klucel (hydroxypropylcellulose) (HPC)): 182 % of control and 203 % of control
T/C (dose: 64.0 mg/kg/injection, schedule: Q01DX009 (ip), vehicle: clinical formulation): 194 % of control
T/C (dose: 64.0 mg/kg/injection, schedule: Q01DX009 (oral), vehicle: other): 107 % of control
T/C (dose: 64.0 mg/kg/injection, schedule: Q04DX003 (ip), vehicle: other): 161 % of control and 163 % of control
T/C (dose: 64.0 mg/kg/injection, schedule: Q04DX003 (ip), vehicle: water): 159 % of control
T/C (dose: 75.0 mg/kg/injection, schedule: Q01DX001 (ip), vehicle: saline): 154 % of control
T/C (dose: 75.0 mg/kg/injection, schedule: Q01DX009 (ip), vehicle: saline): 183 % of control
T/C (dose: 75.0 mg/kg/injection, schedule: Q04DX003 (ip), vehicle: saline): 158 % of control
T/C (dose: 77.8 mg/kg/injection, schedule: Q04DX003 (ip), vehicle: alkali diluted with saline): 165 % of control
T/C (dose: 86.4 mg/kg/injection, schedule: Q04DX003 (ip), vehicle: other): 193 % of control
T/C (dose: 100.0 mg/kg/injection, schedule: Q04DX002 (ip), vehicle: saline): 154 % of control and 169 % of control
T/C (dose: 100.0 mg/kg/injection, schedule: Q04DX003 (ip), vehicle: other): 155 % of control
T/C (dose: 100.0 mg/kg/injection, schedule: Q04DX003 (ip), vehicle: water): 200 % of control
T/C (dose: 128.0 mg/kg/injection, schedule: Q01DX001 (oral), vehicle: other): 98 % of control
T/C (dose: 128.0 mg/kg/injection, schedule: Q01DX001 (sc), vehicle: other): 100 % of control
T/C (dose: 128.0 mg/kg/injection, schedule: Q01DX008 (ip), vehicle: other): 156 % of control
T/C (dose: 128.0 mg/kg/injection, schedule: Q01DX009 (ip), vehicle: Klucel (hydroxypropylcellulose) (HPC)): 186 % of control
T/C (dose: 128.0 mg/kg/injection, schedule: Q01DX009 (oral), vehicle: other): 103 % of control
T/C (dose: 128.0 mg/kg/injection, schedule: Q01DX009 (sc), vehicle: other): 159 % of control
T/C (dose: 128.0 mg/kg/injection, schedule: Q04DX003 (ip), vehicle: Klucel (hydroxypropylcellulose) (HPC)): 156 % of control
T/C (dose: 128.0 mg/kg/injection, schedule: Q04DX003 (ip), vehicle: other): 167 % of control and 175 % of control
T/C (dose: 128.0 mg/kg/injection, schedule: Q08DX002 (ip), vehicle: other): 155 % of control
T/C (dose: 130.0 mg/kg/injection, schedule: Q04DX003 (ip), vehicle: alkali diluted with saline): 180 % of control
T/C (dose: 144.0 mg/kg/injection, schedule: Q04DX003 (ip), vehicle: other): 207 % of control
T/C (dose: 150.0 mg/kg/injection, schedule: Q01DX001 (ip), vehicle: saline): 150 % of control
T/C (dose: 150.0 mg/kg/injection, schedule: Q04DX003 (ip), vehicle: saline): 175 % of control
T/C (dose: 200.0 mg/kg/injection, schedule: Q04DX002 (ip), vehicle: saline): 163 % of control and 176 % of control
T/C (dose: 200.0 mg/kg/injection, schedule: Q04DX003 (ip), vehicle: other): 189 % of control
T/C (dose: 216.0 mg/kg/injection, schedule: Q04DX003 (ip), vehicle: alkali diluted with saline): 205 % of control
T/C (dose: 256.0 mg/kg/injection, schedule: Q01DX001 (oral), vehicle: other): 103 % of control
T/C (dose: 256.0 mg/kg/injection, schedule: Q01DX001 (sc), vehicle: other): 108 % of control
T/C (dose: 256.0 mg/kg/injection, schedule: Q01DX009 (oral), vehicle: other): 112 % of control
T/C (dose: 256.0 mg/kg/injection, schedule: Q04DX003 (ip), vehicle: Klucel (hydroxypropylcellulose) (HPC)): 156 % of control
T/C (dose: 256.0 mg/kg/injection, schedule: Q04DX003 (ip), vehicle: other): 206 % of control and 208 % of control
T/C (dose: 256.0 mg/kg/injection, schedule: Q08DX002 (ip), vehicle: other): 174 % of control
T/C (dose: 300.0 mg/kg/injection, schedule: Q01DX001 (ip), vehicle: saline): 166 % of control
T/C (dose: 300.0 mg/kg/injection, schedule: Q04DX003 (ip), vehicle: saline): 220 % of control
T/C (dose: 400.0 mg/kg/injection, schedule: Q04DX002 (ip), vehicle: saline): 163 % of control
T/C (dose: 512.0 mg/kg/injection, schedule: Q01DX001 (oral), vehicle: other): 99 % of control
T/C (dose: 512.0 mg/kg/injection, schedule: Q01DX001 (sc), vehicle: other): 107 % of control
T/C (dose: 512.0 mg/kg/injection, schedule: Q01DX009 (oral), vehicle: other): 112 % of control
